Assay [1] concerns the target T1, hAT1R (Homo sapiens, UniProt P30556).
T1 sequence (P30556 1-359): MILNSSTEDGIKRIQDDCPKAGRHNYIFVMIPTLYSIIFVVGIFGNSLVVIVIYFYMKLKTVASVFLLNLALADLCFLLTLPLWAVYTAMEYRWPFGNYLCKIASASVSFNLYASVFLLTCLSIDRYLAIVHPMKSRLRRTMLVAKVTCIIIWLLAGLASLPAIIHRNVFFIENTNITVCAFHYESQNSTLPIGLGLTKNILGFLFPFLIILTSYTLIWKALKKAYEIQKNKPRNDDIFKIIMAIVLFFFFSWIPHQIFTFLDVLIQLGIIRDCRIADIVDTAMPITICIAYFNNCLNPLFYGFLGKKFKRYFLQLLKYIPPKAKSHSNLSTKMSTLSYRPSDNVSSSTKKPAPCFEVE
The assay is described as follows: FLIPR calcium flux assay, Part II: antagonist activity against Angiotensin II. For hAT1R Antagonist Efficacy Antag (%) Ave: Angiotensin II 10 nM final concentration. Format: cell-based. The following applies: for Emax: read-out: hAT1R Antagonist Efficacy Antag (%) Ave; for IC50: read-out: hAT1R Antagonist IC50 Ave. (Calcium flux is commonly read through the fluorescence of an indicator in the cells.)

In assay [2] the target is T1, hAT1R. The assay is described as follows: FLIPR calcium flux assay, Part I: agonist activity. Format: cell-based. To be noted: ChanTest hAT1R stable cells; % MPE, percent of the maximal possible effect; read-out: hAT1R Agonist Efficacy Agonist (%) Ave.

Starred links: 1 amine or outer side, 2 acyl side, 3 side chain; linkers in the order of their positions; H or OH if unused. Non-standard residues stand in square brackets, D forms with d. Residues, ends and D or L forms follow the SMILES beside them. X1 = O=C(CN(C[C@H](O)[C@@H](O)[C@H](O)[C@H](O)CO)[*:1])[*:2]; dPhe(2-Ph) = N[C@H](Cc1ccccc1-c1ccccc1)C(=O)O; dPhe(2-Cl) = N[C@H](Cc1ccccc1Cl)C(=O)O; dPhe(2-Me) = Cc1ccccc1C[C@@H](N)C(=O)O; Gly(cPent) = N[C@H](C(=O)O)C1CCCC1; Chg = N[C@H](C(=O)O)C1CCCCC1

In patent US10344054B2, “Angiotensin-1-receptor antagonists” (Ferring B.V., priority 2016, dated 2019) one finds Emax and IC50 data, which are given here for eight compounds.

A word on the IC50: it is the concentration at which inhibition is half-maximal. In the case of `CC(C)[C@H](NC(=O)[C@H](CCCNC(=N)N)NC(=O)CNC[C@H](O)[C@@H](O)[C@H](O)[C@H](O)CO)C(=O)N[C@@H](Cc1ccc(O)cc1)C(=O)N[C@H](C(=O)N[C@@H](Cc1c[nH]cn1)C(=O)N1CCC[C@H]1C(=O)N[C@H](Cc1ccccc1-c1ccccc1)C(=O)O)C1CCCCC1` [Compound 42, Glac-Arg-Val-Tyr-Chg-His-Pro-(D-Phe(2-Ph))—OH] (H-[X1]RVY[Chg]HP[dPhe(2-Ph)]-OH), at hAT1R [1], the Emax amounted to 101% and the IC50 was 28.5 nM. Besides, at hAT1R [2], the Emax came to 10%.

In the case of `CC(C)[C@H](NC(=O)[C@H](CCCNC(=N)N)NC(=O)CNC[C@H](O)[C@@H](O)[C@H](O)[C@H](O)CO)C(=O)N[C@@H](Cc1ccc(O)cc1)C(=O)N[C@H](C(=O)N[C@@H](Cc1c[nH]cn1)C(=O)N1CCC[C@H]1C(=O)N[C@H](Cc1ccccc1Cl)C(=O)O)C1CCCC1` [Compound 43, Glac-Arg-Val-Tyr-Cpg-His-Pro-(D-Phe(2-Cl))—OH] (H-[X1]RVY[Gly(cPent)]HP[dPhe(2-Cl)]-OH), on hAT1R [1], the Emax is 100% and the IC50 is 16.6 nM. Moreover, the Emax on hAT1R [2] was 6%.

For `Cc1ccccc1C[C@@H](NC(=O)[C@@H]1CCCN1C(=O)[C@H](Cc1c[nH]cn1)NC(=O)[C@@H](NC(=O)[C@H](Cc1ccc(O)cc1)NC(=O)[C@@H](NC(=O)[C@H](CCCNC(=N)N)NC(=O)CNC[C@H](O)[C@@H](O)[C@H](O)[C@H](O)CO)C(C)C)C1CCCC1)C(=O)O` [Compound 44, Glac-Arg-Val-Tyr-Cpg-His-Pro-(D-Phe(2-Me))—OH] (H-[X1]RVY[Gly(cPent)]HP[dPhe(2-Me)]-OH), the Emax at hAT1R [1] came to 101%; at hAT1R [2], 7%. In addition, the IC50 on hAT1R [1] was determined as 20.4 nM.

For `Cc1ccccc1C[C@@H](NC(=O)[C@@H]1CCCN1C(=O)[C@H](Cc1c[nH]cn1)NC(=O)[C@@H](NC(=O)[C@H](Cc1ccc(O)cc1)NC(=O)[C@@H](NC(=O)[C@H](CCCNC(=N)N)NC(=O)CNC[C@H](O)[C@@H](O)[C@H](O)[C@H](O)CO)C(C)C)C(C)C)C(=O)O` [Compound 45, Glac-Arg-Val-Tyr-Val-His-Pro-(D-Phe(2-Me))—OH] (HELM PEPTIDE1{[O=C(CNC[C@H](O)[C@@H](O)[C@H](O)[C@H](O)CO)[*:2]].R.V.Y.V.H.P.[Cc1ccccc1C[C@@H](N[*:1])C(=O)O]}$$$$V2.0), the Emax at hAT1R [1] is 101%; at hAT1R [2], 6%. Also, the concentration for half-maximal inhibition (IC50) on hAT1R [1] stood at 18.6 nM.

With `Cc1ccccc1C[C@@H](NC(=O)[C@@H]1CCCN1C(=O)[C@H](Cc1c[nH]cn1)NC(=O)[C@@H](NC(=O)[C@H](Cc1ccc(O)cc1)NC(=O)[C@@H](NC(=O)[C@H](CCCNC(=N)N)NC(=O)CNC[C@H](O)[C@@H](O)[C@H](O)[C@H](O)CO)C(C)C)C1CCCCC1)C(=O)O` [Compound 46, Glac-Arg-Val-Tyr-Chg-His-Pro-(D-Phe(2-Me))—OH] (H-[X1]RVY[Chg]HP[dPhe(2-Me)]-OH), on hAT1R [1], the Emax was 100% and the IC50 worked out at 22.2 nM. For the same compound, the Emax on hAT1R [2] came to 6%.

Regarding `CC[C@H](C)[C@H](NC(=O)[C@@H]1CCCN1C(=O)[C@H](Cc1c[nH]cn1)NC(=O)[C@@H](NC(=O)[C@H](Cc1ccc(O)cc1)NC(=O)[C@@H](NC(=O)[C@H](CCCNC(=N)N)NC(=O)CNC)C(C)C)[C@@H](C)CC)C(=O)O` [Ref. Cpd. 1, Sar-Arg-Val-Tyr-Ile-His-Pro-Ile-OH, reference compound], the Emax was found to be 99% at hAT1R [1] and 42% on hAT1R [2].

On to `CC[C@H](C)[C@H](NC(=O)[C@H](Cc1ccc(O)cc1)NC(=O)[C@@H](NC(=O)[C@H](CCCNC(=N)N)NC(=O)CNC)C(C)C)C(=O)N[C@@H](Cc1c[nH]cn1)C(=O)N1CCC[C@H]1C(=O)N[C@H](Cc1ccccc1)C(=O)O` [Ref. Cpd. 2, Sar-Arg-Val-Tyr-Ile-His-Pro-D-Phe-OH, reference compound], for which, on hAT1R [1], the Emax is 99% and the IC50 turned out to be 14.3 nM. The Emax on hAT1R [2] amounted to 25%.

Regarding `CCCCC(=O)N(Cc1ccc(-c2ccccc2-c2nnn[nH]2)cc1)[C@H](C(=O)O)C(C)C` [Ref. Cpd. 4, Valsartan, reference compound], the figures for the Emax at hAT1R [1] and at hAT1R [2] were 100% and 0.7%, respectively.
